Ends that are not written are not given here.
Experiments:
ICP4 = assay: In vitro phosphorylation of purified ICP4 without added kinase; assay type: biochemical, HSV-1; conditions: 1 mM
Description: In vitro phosphorylation of purified ICP4 proteins with PKA or without added kinase. Approximately 20 ng of the ICP4 protein purified as described previously (Imbalzano, A. N., Shepard, A. A. and DeLuca, N. A., J. Virol., 64:2620-2631 (1990)) was added to a solution containing 10 mM Tris (pH 7.2), 10 mM MgCl2, 50 mM NaCl, 10 mM DTT and 20 μM (0.15 mCi) [γ-^32 P]ATP. The phosphorylation reaction was initiated by adding 60 U of protein kinase A type I catalytic subunit purified from bovine heart (Sigma Chem. Co., 1000 U/0.016 mg protein). Reaction mixtures were incubated at 30° C. for 30 min and stopped by addition of SDS-sample buffer. Equal portions of the reactions were analyzed by SDS-PAGE and transferred onto a nitrocellulose sheet for exposure to Kodak X-AR film and for staining with an ICP4-specific antibody. In some cases, the reaction mixtures were terminated by addition of 0.5 ml lysis buffer, and immunoprecipitation was conducted exactly as described above.
When an equivalent amount of d8-10 ICP4 protein was incubated, no labeled band was observed (Example 1; FIG. 5A, lane 3). The amount of phosphorylation in the absence of added enzyme was approximately one-tenth the level of phosphorylation in the presence of PKA. This phosphorylation in the absence of added enzyme may have resulted from an enzyme tightly bound to ICP4 or from an activity intrinsic to ICP4 itself. […]

viral DNA synthesis = conditions: cited from earlier work
[1] = cited from earlier work
[2] = target: T1, protein kinase A type I catalytic subunit (Bos taurus, UniProt P00517); assay: In vitro phosphorylation of a synthetic peptide by PKA; assay type: biochemical, bovine; conditions: for Ratio**: ratio defined in footnote drawing 1
T1 construct: purchased Sigma Chem. Co; host or cells: bovine heart
Description: (§1) ii) In vitro phosphorylation of a synthetic peptide. A peptide containing a potential protein kinase A site in the serine-rich region of ICP4 (RRRRHGRWRPSASST, residues 165-179) (SEQ ID NO: 2 ) was synthesized on an Applied Biosystems model 430A automated peptide synthesizer and purified by HPLC. Amino acid analysis confirmed the authenticity of this peptide, termed ICP4tide. ICP4tide (100 μM), or Kemptide (LRRASLG, Sigma Inc.), a commercially available substrate for protein kinase A ([…]), was then incubated at 30° C. in a solution containing 24 mM MES (pH 7.0), […], 5.6 nM [^32 P]ATP (300-600 Ci/mmol). Each reaction was subsequently initiated by adding 80 U of protein kinase A type I catalytic subunit purified from bovine heart (Sigma Chem. Co., 1000U/0.016 mg protein) to a final volume of 52.5 μl. Following incubation for 4 minutes, 20 μl of the reaction was spotted onto P81 phosphocellulose strips, and phosphopeptides were quantitated after washing three times in […] of 75 mM phosphoric acid as previously described (Roskoski, R. Jr., Methods in Enzymology, 99:3-6 (1983)). For kinetic studies, the concentration of ICP4tide was varied as indicated. The ICP4tide was also phosphorylated in a manner similar to those described below for phosphorylation of purified ICP4 proteins with PKA except that synthetic peptide replaced the purified ICP4 and the ATP concentration was increased to 60 mM. Such phosphorylated peptides were resolved in a 27% SDS-polyacrylamide gel.
(§2) Accordingly, a peptide, named ICP4tide (RRRRHGRWRPSASST, residues 165-179) (SEQ ID NO: 2), corresponding to this potential site was synthesized and incubated in vitro with purified type I catalytic subunits of PKA and [γ-^32 P]ATP. Kemptide (LRRASLG) (SEQ ID NO: 5), a commercially available substrate for PKA, was used as a positive control.
(§3) To determine the Km values of these reactions, we incubated different concentrations of ICP4tide with [Y-^32 P]ATP and a fixed amount of PKA catalytic subunits (80 U each) for 4 min at 30° C. Varying amounts of ICP4tide were incubated with […] of PKA and 60 μM ATP, and the incorporation of ^32 P into ICP4tide was determined. From the Lineweaver-Burk representation of the data, the Km was determined as described (Michael, N., Spector, D., Mavromara-Nazos, P., Kristie, T. M. and Roizman, B., Science, 239:1531-1534 (1988)). […] Thus, the synthetic ICP4tide could be considered to be a good substrate for PKA in vitro.

[3] = tested on: CC(C)C[C@H](NC(=O)[C@H](CO)NC(=O)[C@H](C)NC(=O)[C@H](CCCNC(=N)N)NC(=O)[C@H](CCCNC(=N)N)NC(=O)[C@@H](N)CC(C)C)C(=O)NCC(=O)O; assay: as above; assay type: biochemical, bovine; conditions: other: Lineweaver-Burk, PKA catalytic subunits, 4 min at 30° C., 60 μM ATP, pH 7.0
Description: as §1, §2, §3

Q: With `[Mn+2]` [Mn^+2] as the compound, how does the “effect on phosphorylation of ICP4 in the absence of added kinase” value (ICP4) read?
A: inhibited

Q: Which “effect on viral DNA synthesis” value (viral DNA synthesis) does the source give for `Nc1nc2c(ncn2COCCO)c(=O)[nH]1` [acyclovir] here?
A: inhibits viral DNA synthesis

Q: What does the source list for `Nc1ncnc2c1ncn2[C@@H]1O[C@H](CO)[C@@H](O)[C@@H]1O` [vidarabine]?
A: effect on viral DNA synthesis (viral DNA synthesis): inhibits viral DNA synthesis; properties in some experimental models [1]: teratogenic, mutagenic and carcinogenic properties

Q: For LRRASLG [Kemptide, LRRASLG], which “Phosphorylation (cpm)” value ([2]; +PKA) is on record?
A: 768687 cpm

Q: What about the “γ^32 P incorporated (%)” value ([2]; +PKA) of the same compound?
A: 26.1%

Q: And the “Ratio**” value ([2]; +PKA)?
A: 88.5

Q: And the “Phosphorylation (cpm)” value ([2]; -PKA)?
A: 8682 cpm

Q: And the “γ^32 P incorporated (%)” value ([2]; -PKA)?
A: 0.3%

Q: For RRRRHGRWRPSASST [ICP4tide], which “Phosphorylation (cpm)” value ([2]; +PKA) is on record?
A: 182104 cpm

Q: And the “γ^32 P incorporated (%)” value ([2]; +PKA)?
A: 6.2%

Q: And the “Ratio**” value ([2]; +PKA)?
A: 26.2

Q: And the “Phosphorylation (cpm)” value ([2]; -PKA)?
A: 6946 cpm

Q: What about the “γ^32 P incorporated (%)” value ([2]; -PKA) of the same compound?
A: 0.24%

Q: And the Km ([2]; Lineweaver-Burk, PKA catalytic subunits, 4 min at 30° C., 60 μM ATP)?
A: 39 µM

Q: What about the “phosphorylation by PKA, in words” value ([2]; compared with Kemptide) of the same compound?
A: strongly phosphorylated

Q: With “protein kinase A type I catalytic subunit (Bos taurus)” as the compound, how does the Km [3] read?
A: 9 µM

Reference: patent publication US5869234A, “Method of identifying compounds which modulate herpesvirus infection” (President and Fellows of Harvard College, priority 1996, dated 1999)
